Laboratory results reported in US20200131144A1, “AMINE OR (THIO)AMIDE CONTAINING LXR MODULATORS” (Phenex-FXR GmbH, priority 2017, published 2020).

Columns and labels:
[1] = biological target: T1, LXRβ ligand-binding domain (LBD) (Homo sapiens, UniProt P55055, INS174Q); experiment: LXR Gal4 reporter transient transfection assay, mammalian two-hybrid, LBD-M2H Gal4β; assay type: cell-based; settings: HEK293 cells; inverse agonist unless *
T1 construct: or LXR (amino acids 156-461); expressed in transfected cells; host or cells: HEK293
T1 sequence (P55055 with tags, fused parts or gaps INS174Q limits assumed): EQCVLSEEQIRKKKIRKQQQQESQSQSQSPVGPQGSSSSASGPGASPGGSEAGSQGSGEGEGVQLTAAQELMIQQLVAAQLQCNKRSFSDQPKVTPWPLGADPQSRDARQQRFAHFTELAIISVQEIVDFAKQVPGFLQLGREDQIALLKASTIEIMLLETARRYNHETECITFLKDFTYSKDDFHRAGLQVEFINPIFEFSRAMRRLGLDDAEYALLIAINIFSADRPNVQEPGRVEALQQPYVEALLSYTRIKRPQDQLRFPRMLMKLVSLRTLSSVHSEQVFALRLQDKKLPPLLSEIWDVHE
Procedure, shortened: (§1)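 HEK293 cells transiently cotransfected with NFkB-AD fusions of full-length or LBD LXRα/β, GAL4-DBD fusions of SRC1 coactivator or NCoR corepressor domains, GAL4-driven firefly luciferase and Renilla control. Compound added 4 h post-transfection (≤0.2% DMSO), 16 h incubation; firefly and Renilla luminescence read sequentially.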

[2] = biological target: T2, LXRα ligand-binding domain (LBD) (Homo sapiens, UniProt Q13133); experiment: LXR Gal4 reporter transient transfection assay, mammalian two-hybrid, LBD-M2H Gal4α; assay type: cell-based; settings: HEK293 cells; inverse agonist unless *
T2 construct: expressed in transfected cells; host or cells: HEK293
T2 sequence (Q13133 155-447): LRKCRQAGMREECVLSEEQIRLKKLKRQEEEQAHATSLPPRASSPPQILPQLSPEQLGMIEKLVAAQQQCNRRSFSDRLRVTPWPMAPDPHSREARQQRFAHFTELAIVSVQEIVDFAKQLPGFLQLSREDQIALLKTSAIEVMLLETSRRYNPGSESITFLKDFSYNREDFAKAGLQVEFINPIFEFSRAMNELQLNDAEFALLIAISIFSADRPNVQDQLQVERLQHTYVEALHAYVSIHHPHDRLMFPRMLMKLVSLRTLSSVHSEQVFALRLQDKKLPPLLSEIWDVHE
Procedure, shortened: as §1

SMILES: Cc1ccc2ccccc2c1C(=O)N(Cc1ccc(-c2cccc(S(=O)(=O)CC(=O)O)c2)cc1)Cc1ccc(C(F)(F)F)o1 [Example 9]
- EC50 [1]: 100 to 1000 nM
- EC50 [2]: 100 to 1000 nM

SMILES: Cc1ccc2ccccc2c1C(=O)N(Cc1ccc(-c2cc(F)c(CO)c(S(=O)(=O)CC(=O)O)c2)cc1)Cc1ccc(C(F)(F)F)o1 [22/8]
- EC50 [1]: < 100 nM
- EC50 [2]: < 100 nM

SMILES: Cc1ccc2ccccc2c1CN(Cc1ccc(-c2cccc(C(C)(C)C(=O)O)c2)cc1)Cc1ccc(C(F)(F)F)o1 [Example 24, 2-Methyl-2-(4′-((((2-methylnaphthalen-1-yl)methyl)((5-(trifluoromethyl)furan-2-yl)methyl)amino)methyl)-[1,1′-biphenyl]-3-yl)propanoic acid]
- EC50 [1]: < 100 nM
- EC50 [2]: < 100 nM

SMILES: Cc1cc(C)c(C(=O)N(Cc2ccc(-c3cccc(C(C)(C)C(=O)O)c3)cc2)Cc2ccc(C(F)(F)F)o2)c(C)c1 [10/1]
- EC50 [1]: < 100 nM
- EC50 [2]: 100 to 1000 nM
